Experimental data as given in patent US20240287033A1, “DEGRADERS OF TISSUE TRANSGLUTAMINASE 2 (TG2)” (Northwestern University, priority 2023, published 2024).
pKd: −log10 of the molar value. “Also recorded” adds a separate entry of the source. Like-named read-outs stand apart in the source and are kept apart here.

Assays:
TG2 [1] = biological target: T1, TG2 (Homo sapiens, UniProt P21980); assay: Western blot analysis of TG2 degradation in OVCAR5 cells; assay type: cell-based; settings: for TG2 degradation with VHL ligand as competitive inhibitor: 10 μM compound 6 hrs, 10 μM VHL ligand; for TG2 degradation (western blot): 6 hours, 0.1-10 μM; for TG2 levels after longer treatment (western blot): 24 hours, single dosing; for TG2 levels at 24 hours after repeated dosing: dosed every 6-8 hours over 24 hours, 1 or 10 μM
T1 construct: tested in multiple ovarian cancer cell lines that express TG2 for their ability to degrade the protein; endogenous in cells; host or cells: OVCAR5 and SKOV3 ovarian cancer cells
T1 sequence (P21980 1-687): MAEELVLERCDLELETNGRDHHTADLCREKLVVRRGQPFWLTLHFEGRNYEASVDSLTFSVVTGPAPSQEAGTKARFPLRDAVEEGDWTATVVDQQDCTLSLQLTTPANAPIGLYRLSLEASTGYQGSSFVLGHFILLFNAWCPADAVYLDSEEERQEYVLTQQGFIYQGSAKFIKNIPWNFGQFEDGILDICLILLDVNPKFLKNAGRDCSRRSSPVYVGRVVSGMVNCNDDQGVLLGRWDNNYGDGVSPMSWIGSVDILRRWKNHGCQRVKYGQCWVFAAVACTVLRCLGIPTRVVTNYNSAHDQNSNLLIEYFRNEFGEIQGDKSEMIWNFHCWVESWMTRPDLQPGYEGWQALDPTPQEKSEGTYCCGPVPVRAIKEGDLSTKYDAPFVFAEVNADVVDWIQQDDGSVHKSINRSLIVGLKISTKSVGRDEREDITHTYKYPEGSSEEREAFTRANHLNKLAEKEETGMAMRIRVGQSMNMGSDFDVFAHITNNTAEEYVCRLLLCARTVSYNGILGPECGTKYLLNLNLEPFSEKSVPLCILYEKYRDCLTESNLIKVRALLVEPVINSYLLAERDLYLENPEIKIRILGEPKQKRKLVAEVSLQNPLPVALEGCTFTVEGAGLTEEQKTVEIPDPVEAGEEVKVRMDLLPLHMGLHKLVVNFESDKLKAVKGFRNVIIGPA
Procedure: (§1) SKOV3 cells were purchased from ATCC. OVCAR5 cells were obtained from Dr. Marcus Peter at Northwestern University. Cells were maintained at 37° C. in an environment of 5% CO2 and 100% humidity. The media used for culturing the cell lines are included in Table 1. Cells lines used in all experiments were at low-passages and were confirmed to be pathogen and mycoplasma-free by Charles River Animal Diagnostic Services. Cell lines were authenticated by IDEXX BioAnalytics with short tandem repeat (STR) profiling. MG132 was obtained from SelleckChem. Anti-TG2 antibody (cat #: MAB3839-I-100UG) was purchased from Millipore Sigma, GAPDH antibody (cat #: H86504M) was purchased from Meridian Bioscience.
(§2) Briefly, SKOV3 and OVCAR5 cells were seeded on 6 cm dishes and treated with different concentrations of compounds at different time points. Proteins were extracted using RIPA buffer and quantified using the Bradford assay. After gel electrophoresis and transfer, PDVF membranes were blocked with TBS-Tween 5% BSA for one hour and incubated with primary antibodies 20 (1:1000 dilution, overnight at 4° C.). After incubation with the secondary antibody (anti rabbit/mouse-horseradish peroxidase 1:1000 dilution) for 1 h at room temperature, signal was developed using SuperSignal West Pico PLUS Chemiluminescent Substrate (Thermo Fisher Scientific cat #: 34580) and captured with an ImageQuant LAS 4000 machine. To detect additional proteins, membranes were treated with Restore Western Blot Stripping Buffer (Thermo Fisher Scientific cat #: 21059), blocked, and then incubated with primary antibody.

SKOV3 cells [2] = assay: Cell viability assay (CCK-8), SKOV3; assay type: cell-based; settings: 0.1-30 μM, 5 days
Procedure: (§3) The numbers of viable cells were quantified by using the CCK-8 assay (ApexBio) following the manufacturer's directions. Absorbance was measured by a spectrophotometer at 495 nm and used estimate the viability of the cells.

OVCAR5 cells [3] = assay: Solid phase adhesion assay on fibronectin, OVCAR5; assay type: cell-based
Procedure: (§4) Briefly, wells were coated with 10 μg/ml fibronectin diluted in PBS for one hour. 30,000 cells pretreated with compounds for 6 hours were seeded and allowed to attach for 30 minutes. After washing with PBS to remove unattached cells, cells adhering to coated wells were quantified by using the CCK-8 assay (ApexBio), following the manufacturer's protocol. Relative absorbance measured at 496 nm was used to estimate the relative number of the cell attached to fibronectin coated wells.

OVCAR5 cells [4] = assay: Transwell migration assay, OVCAR5; assay type: cell-based
Procedure: (§5) For the scratch assay, confluent 6-well plates were scratched with a pipette tip, washed and treated with compounds or vehicle. The plate was photographed at set time points and the area of wound closure was quantified with ImageJ. Cell migration was assessed by using Transwell inserts (8 μm pore size, Merck-Millipore, Watford, UK). Briefly, 15,000 cells were seeded in the upper chambers of trans-wells in serum-free media containing compounds or control, while media containing 10% serum was added to the lower chamber. After 18 hours, cells invaded through the transwells were fixed with warm 4% PFA for 20 min at room temperature and stained with crystal violet for 3 min. The membranes were removed, mounted on cover slides and cells were counted using a microscope at 40× magnification.

Solubility observations = assay type: physicochemical
OVCAR5 cells [5] = assay: Cell viability assay (CCK-8), OVCAR5; assay type: cell-based; settings: 0.1-30 μM, 5 days
Procedure: as §3

OVCAR5 cells [6] = assay: Wound-healing (scratch) assay, OVCAR5; assay type: cell-based
Procedure: as §5

SKOV3 cells [7] = assay: Solid phase adhesion assay on fibronectin, SKOV3; assay type: cell-based
Procedure: as §4

full-length TG2 [8] = biological target: T2, full-length TG2 (Homo sapiens, UniProt P21980); assay: Isothermal titration calorimetry (ITC) binding to TG2; settings: for decrease in affinity relative to the parental compound MT4: ITC KD ratio versus MT4; for pKd: titration into TG2 at 30° C., PBS with 1% DMSO, read-out: equilibrium dissociation constant KD (ITC)
T2 sequence (P21980 1-687): T1 sequence (P21980 1-687)
Procedure: Sample Preparation. Protein dilutions in PBS with 1% DMSO were prepared from stock solutions of […] in PBS. The protein dilutions were initially equilibrated on ice for 5 min, then for 20 min at 30° C. The solutions were filtered using a […] Millipore centrifugal device just prior to insertion in the ITC cell. The solubility of the protein solutions was confirmed independently by DLS (data not shown), and the concentration of each solution (after filtration) was measured with a NanoDrop 2000 Instrument.
All compound dilutions were made in PBS, and the final DMSO concentration in each solution was carefully adjusted to 1%.
ITC Experiments. All ITC experiments were performed on an Affinity Low Volume instrument (Waters/TA Instruments) equipped with a fixed 198 μL gold cell. In each experiment, 320 μL of protein solution was loaded into the ITC cell, and 200 μL of the corresponding compound was in the syringe. The data were acquired using ITCRun data acquisition software. The incremental ITC experiments consisted of multiple 2 μL injections at 50-350-second intervals with a stirring speed of 100 revolutions per minute (rpm). The Auto Equilibrate function allowed for the equilibration of the baseline to a peak-to-peak standard deviation of less than 12 nW. For each compound, separate control experiments were performed to evaluate the heat of dilution. The control experiments were set with identical parameters but performed with reaction buffer instead of protein in the ITC cell and consisted of fewer (6-10) injections.
Data Analysis. ITC data were analyzed with Nano Analyze Software (Waters/TA Instruments) using the “independent sites” model after correction for heats of dilution.

TG2 [9] = biological target: T1, TG2; assay: Western blot analysis of TG2 degradation in SKOV3 cells; assay type: cell-based; settings: for TG2 degradation with VHL ligand as competitive inhibitor: 10 μM compound 6 hrs, 10 μM VHL ligand; for TG2 degradation (western blot): 6 hours, up to 10 μM; for TG2 levels after longer treatment (western blot): 24 hours, single dosing; for TG2 levels at 24 hours after repeated dosing: dosed every 6-8 hours over 24 hours, 1 or 10 μM; for time of maximal TG2 degradation: higher concentrations (10 and 30 μM)
Procedure: as §1, §2

SKOV3 cells [10] = assay: Transwell migration assay, SKOV3; assay type: cell-based
Procedure: as §5

SKOV3 cells [11] = assay: Wound-healing (scratch) assay, SKOV3; assay type: cell-based
Procedure: as §5

full-length TG2 [12] = biological target: T2, full-length TG2; settings: literature value (ref. 41); read-out: KD of MT4 to TG2, previously reported result; cited from earlier work

SMILES | TG2 degradation with VHL ligand as competitive inhibitor (TG2 [1]) | TG2 degradation (western blot) (TG2 [1]) | TG2 levels after longer treatment (western blot) (TG2 [1]) | TG2 levels at 24 hours after repeated dosing (TG2 [1]) | cell death / viability (SKOV3 cells [2]) | adhesion of cells to fibronectin (OVCAR5 cells [3]) | cell migration, transwell migration assay (OVCAR5 cells [4]) | solubility (in words) (Solubility observations) | cell death / viability (OVCAR5 cells [5]) | cell migration, wound-healing assay (OVCAR5 cells [6]) | adhesion of cells to fibronectin (SKOV3 cells [7]) | decrease in affinity relative to the parental compound MT4 (full-length TG2 [8]) [fold] | pKd (full-length TG2 [8]) | TG2 degradation with VHL ligand as competitive inhibitor (TG2 [9]) | TG2 degradation (western blot) (TG2 [9]) | TG2 levels after longer treatment (western blot) (TG2 [9]) | TG2 levels at 24 hours after repeated dosing (TG2 [9]) | time of maximal TG2 degradation (TG2 [9]) [h] | cell migration, transwell migration assay (SKOV3 cells [10]) | cell migration, wound-healing assay (SKOV3 cells [11]) | further results
Cc1cc(N(C)CCOCCC(=O)N[C@H](C(=O)N2C[C@H](O)C[C@H]2C(=O)NCc2ccc(-c3scnc3C)cc2)C(C)(C)C)nc(Nc2ccc(NC(=O)Cc3ccccc3)cc2)n1 [Compound 7, (2S,4R)-1-((S)-3,3-dimethyl-2-(3-(2-(methyl(6-methyl-2-((4-(2-phenylacetamido)phenyl)amino)pyrimidin-4-yl)amino)ethoxy)propanamido)butanoyl)-4-hydroxy-N-(4-(4-methylthiazol-5-yl)benzyl)pyrrolidine-2-carboxamide] | prevented degradation of TG2 | significantly reduced the level of TG2; also recorded: Degradation of TG2 was observed | did not induce reduction in TG2 levels | persistent and dose-dependent decreased TG2 levels | No significant cell death; also recorded: no cell death was observed | significantly reduced the adhesion | potently inhibited the migration | poorer solubility than compound 11 | No significant cell death; also recorded: no cell death was observed | potently inhibited the migration | significantly reduced the adhesion | > 12.8 | < 4.00 | prevented degradation of TG2; also recorded: but not when combined with VHL ligand | significantly reduced the level of TG2; also recorded: Degradation of TG2 was observed | did not induce reduction in TG2 levels | persistent and dose-dependent decreased TG2 levels | 6 | similarly inhibited the migration | similarly inhibited the migration | 
Cc1cc(N(C)CCOCCOCCOCCOCCOCCC(=O)N[C@H](C(=O)N2C[C@H](O)C[C@H]2C(=O)NCc2ccc(-c3scnc3C)cc2)C(C)(C)C)nc(Nc2ccc(NC(=O)Cc3ccccc3)cc2)n1 [Compound 11, (2S,4R)-1-((S)-22-(tert-buty)-2-(6-methyl-2-((4-(2-phenylacetamido)phenyl)amino)pyrimidin-4-yl)-20-oxo-5,8,11,14,17-pentaoxa-2,21-diazatricosan-23-oyl)-4-hydroxy-N-(4-(4-methylthiazol-5-yl)benzyl)pyrrolidine-2-carboxamide] | prevented degradation of TG2 | significantly reduced the level of TG2; also recorded: Degradation of TG2 was observed | did not induce reduction in TG2 levels | persistent and dose-dependent decreased TG2 levels | No significant cell death; also recorded: no cell death was observed | significantly reduced the adhesion | potently inhibited the migration |  | No significant cell death; also recorded: no cell death was observed | potently inhibited the migration | significantly reduced the adhesion | 8.8 | 4.16 | prevented degradation of TG2; also recorded: but not when combined with VHL ligand | significantly reduced the level of TG2; also recorded: Degradation of TG2 was observed | did not induce reduction in TG2 levels | persistent and dose-dependent decreased TG2 levels | 6 | similarly inhibited the migration | similarly inhibited the migration | 
Cc1cc(N(C)C)nc(Nc2ccc(NC(=O)Cc3ccccc3)cc2)n1 [MT4, reference compound] |  |  |  |  |  |  |  | lower solubility than the PROTAC compounds |  |  |  |  | 5.11 |  |  |  |  |  |  |  | pKd (full-length TG2 [12]): 5.29
